Test: recombinant barcode read abundance after kanamycin selection (control-corrected) (log10(CPM+1)); higher = more efficient recombination; sequences stand for … in AGTGCAGAGAAAATCGGCCAGTTTTCTCTGCCTGCAGTCCGCATGCCGT…AGATTTATGCAGCGGACTGCCTTTCTCCCAAAGTGATAAACCGGACAGTATCATGGACCGGTTTTCCCGGTAATCCGTATTTGCAAGGTTGGTTTCACT; site = the 11-nt target
Outline: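 A vector carrying a T7-inducible recombinase and the last 73 bp of the bridge RNA received, by Gibson cloning, oligos encoding a promoter, target, barcode and the first 104 bridge RNA bases under J23119. The pooled constructs entered E. coli together with a donor plasmid by electroporation. Selection used chloramphenicol/ampicillin/kanamycin with 0.1 mM IPTG, with chloramphenicol/ampicillin LB agar as the control, each in two replicates. Recombination efficiency is the averaged, control-corrected counts-per-million of barcodes at recombinant junctions, reported as log10(CPM+1).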
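Also: IS621 recombinase and bridge RNA in Escherichia coli cells.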

Row | Sequence | recombinant barcode read abundance (log10)
1 | TACTATACTTGGGTTCTAACCTGTTGCCT (site TACTATGCTAG) | 0.0468
2 | TACTATACTTGGGTTCTAACCTGTTGCCT (site TACTATTCTAG) | 0.149
3 | TACTATCCTTGGGTTCTAACCTGTTGCCT (site TACTATACTAG) | 0.0496
4 | TACTATCCTTGGGTTCTAACCTGTTGCCT (site TACTATCCTAG) | 0.441
5 | TACTATCCTTGGGTTCTAACCTGTTGCCT (site TACTATGCTAG) | 0
6 | TACTATCCTTGGGTTCTAACCTGTTGCCT (site TACTATTCTAG) | 0.162
7 | TACTATGCTTGGGTTCTAACCTGTTGCCT (site TACTATACTAG) | 0.211
8 | TACTATGCTTGGGTTCTAACCTGTTGCCT (site TACTATCCTAG) | 0.163
9 | TACTATGCTTGGGTTCTAACCTGTTGCCT (site TACTATGCTAG) | 1.19
10 | TACTATGCTTGGGTTCTAACCTGTTGCCT (site TACTATTCTAG) | 0.187
11 | TACTCCGCTTGGGTTCTAACCTGTTGCCT (site GACTCCGCTAG) | 0.031
12 | TACTCCGCTTGGGTTCTAACCTGTTGCCT (site TACTCCGCTAG) | 1.02
13 | TACTGAGCTTGGGTTCTAACCTGTTGCCT (site CACTGAGCTAG) | 0.0308
14 | TACTGAGCTTGGGTTCTAACCTGTTGCCT (site TACTGAGCTAG) | 0.52
15 | TAGAACTCTTGGGTTCTAACCTGTTGCCT (site TAGAACTCTAG) | 0.914
16 | TAGAACTCTTGGGTTCTAACCTGTTGCCT (site TAGAACTCTCG) | 0.0641
17 | TAGAACTCTTGGGTTCTAACCTGTTGCCT (site TAGAACTCTGG) | 0.156
18 | TAGAACTCTTGGGTTCTAACCTGTTGCCT (site TAGAACTCTTG) | 0.119
19 | TAGAACTCTTGGGTTCTAACCTGTTGCGT (site TAGAACTCTAC) | 1.07
20 | TAGAACTCTTGGGTTCTAACCTGTTGCGT (site TAGAGCTCTAC) | 0.119

Row | Sequence | recombinant barcode read abundance (log10)
21 | TAGAAGACTTGGGTTCTAACCTGTTGCTC (site TAGAAGACTAA) | 0.216
22 | TAGAAGACTTGGGTTCTAACCTGTTGCTC (site TAGAAGACTCA) | 0.178
23 | TAGAAGACTTGGGTTCTAACCTGTTGCTC (site TAGAAGACTGA) | 1.44
24 | TAGAAGACTTGGGTTCTAACCTGTTGCTC (site TAGAAGACTTA) | 0.0266
25 | TAGAAGTCTTGGGTTCTAACCTGTTGCAG (site TAGAAGTCTCT) | 1.9
26 | TAGAAGTCTTGGGTTCTAACCTGTTGCAG (site TAGATGTCTCC) | 0.0783
27 | TAGAATCCTTGGGTTCTAACCTGTTGCAG (site TAGAATCCTAT) | 0.0897
28 | TAGAATCCTTGGGTTCTAACCTGTTGCAG (site TAGAATCCTCT) | 0.718
29 | TAGAATCCTTGGGTTCTAACCTGTTGCAG (site TAGAATCCTGT) | 0.0644
30 | TAGAATCCTTGGGTTCTAACCTGTTGCAG (site TAGAATCCTTT) | 0.072
31 | TAGACATCTTGGGTTCTAACCTGTTGCGT (site CGCTTTACTCG) | 0.125
32 | TAGACATCTTGGGTTCTAACCTGTTGCGT (site TAGACATCTAC) | 1.65
33 | TAGACTACTTGGGTTCTAACCTGTTGCTA (site TAGACTACTAA) | 0.198
34 | TAGACTACTTGGGTTCTAACCTGTTGCTA (site TAGACTACTCA) | 0.111
35 | TAGACTACTTGGGTTCTAACCTGTTGCTA (site TAGACTACTGA) | 0.0863
36 | TAGACTACTTGGGTTCTAACCTGTTGCTA (site TAGACTACTTA) | 0.268
37 | TAGACTCCTTGGGTTCTAACCTGTTGCCA (site ACTTGAGCTAT) | 0.336
38 | TAGACTCCTTGGGTTCTAACCTGTTGCCA (site TAGACTCCTTG) | 0.182
39 | TAGAGCTCTTGGGTTCTAACCTGTTGCGT (site TAGAACTCTAC) | 0.246
40 | TAGAGCTCTTGGGTTCTAACCTGTTGCGT (site TAGAGCTCTAC) | 1.25

Row | Sequence | recombinant barcode read abundance (log10)
41 | TAGATGTCTTGGGTTCTAACCTGTTGCGG (site TAGAAGTCTCT) | 0.0755
42 | TAGATGTCTTGGGTTCTAACCTGTTGCGG (site TAGATGTCTCC) | 2.43
43 | TAGCAATCTTGGGTTCTAACCTGTTGCTA (site GTCGTTACTAG) | 0.0938
44 | TAGCAATCTTGGGTTCTAACCTGTTGCTA (site TAGCAATCTTA) | 0.0837
45 | TAGCACACTTGGGTTCTAACCTGTTGCGG (site TAGCACACTCC) | 1.21
46 | TAGCACACTTGGGTTCTAACCTGTTGCGG (site TAGCCCACTCC) | 0.112
47 | TAGCACACTTGGGTTCTAACCTGTTGCGG (site TAGCGCACTCC) | 0.291
48 | TAGCACACTTGGGTTCTAACCTGTTGCGG (site TAGCTCACTCC) | 0.00842
49 | TAGCATACTTGGGTTCTAACCTGTTGCCA (site TAGCATACTAG) | 0.445
50 | TAGCATACTTGGGTTCTAACCTGTTGCCA (site TAGCATACTCG) | 0.0183
51 | TAGCATACTTGGGTTCTAACCTGTTGCCA (site TAGCATACTGG) | 0.359
52 | TAGCATACTTGGGTTCTAACCTGTTGCCA (site TAGCATACTTG) | 0.529
53 | TAGCCATCTTGGGTTCTAACCTGTTGCCT (site TAACCATCTAG) | 0.0247
54 | TAGCCATCTTGGGTTCTAACCTGTTGCCT (site TACCCATCTAG) | 0.166
55 | TAGCCATCTTGGGTTCTAACCTGTTGCCT (site TAGCCATCTAG) | 0.121
56 | TAGCCATCTTGGGTTCTAACCTGTTGCCT (site TATCCATCTAG) | 0.0171
57 | TAGCCCTCTTGGGTTCTAACCTGTTGCAA (site ACAGTACCTCA) | 0.202
58 | TAGCCCTCTTGGGTTCTAACCTGTTGCAA (site TAGCCCTCTTT) | 2.02
59 | TAGCCCTCTTGGGTTCTAACCTGTTGCCG (site TAGCCCTCTCG) | 1.82
